Assay results taken from PubChem BioAssay AID248 (DTP/NCI, 2004).
Where “and” joins values, the source holds several entries; their conditions need not be identical. Equal values may be shown once. Inconclusive results and toxic doses are left out. Rule as the data show it: active = T/C of 150% or more; inactive = T/C below 125%.

Test system: L1210 leukemia ip in BDF1 mice, survival T/C
Experiment: NCI In Vivo Anticancer Drug Screen. Data for tumor model L1210 Leukemia (intraperitoneal) in B6D2F1 (BDF1) mice
Details: endpoint: mean survival time, higher = longer survival
Method in brief: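 Survival endpoint. Drug-treated group vs vehicle group, expressed as T divided by C. Tumor passaged by transplantation.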

[1] = dose: 100.0 mg/kg/injection, schedule: Q01DX001 (ip), vehicle: saline
[2] = dose: 200.0 mg/kg/injection, schedule: Q01DX001 (ip), vehicle: saline
[3] = dose: 400.0 mg/kg/injection, schedule: Q01DX001 (ip), vehicle: saline
[4] = dose: 100.0 mg/kg/injection, schedule: Q04DX003 (ip), vehicle: saline with Tween-80
[5] = dose: 200.0 mg/kg/injection, schedule: Q04DX003 (ip), vehicle: saline with Tween-80
[6] = dose: 100.0 mg/kg/injection, schedule: Q01DX001 (ip), vehicle: other
[7] = dose: 200.0 mg/kg/injection, schedule: Q01DX001 (ip), vehicle: other
[8] = dose: 400.0 mg/kg/injection, schedule: Q01DX001 (ip), vehicle: other
[9] = dose: 100.0 mg/kg/injection, schedule: Q04DX003 (ip), vehicle: saline
[10] = dose: 200.0 mg/kg/injection, schedule: Q04DX003 (ip), vehicle: saline
[11] = dose: 400.0 mg/kg/injection, schedule: Q04DX003 (ip), vehicle: saline
[12] = dose: 100.0 mg/kg/injection, schedule: Q04DX002 (ip), vehicle: Klucel (hydroxypropylcellulose) (HPC)
[13] = dose: 200.0 mg/kg/injection, schedule: Q04DX002 (ip), vehicle: Klucel (hydroxypropylcellulose) (HPC)
[14] = dose: 400.0 mg/kg/injection, schedule: Q04DX002 (ip), vehicle: Klucel (hydroxypropylcellulose) (HPC)
[15] = dose: 100.0 mg/kg/injection, schedule: Q04DX003 (ip), vehicle: Klucel (hydroxypropylcellulose) (HPC)
[16] = dose: 200.0 mg/kg/injection, schedule: Q04DX003 (ip), vehicle: Klucel (hydroxypropylcellulose) (HPC)
[17] = dose: 400.0 mg/kg/injection, schedule: Q04DX003 (ip), vehicle: Klucel (hydroxypropylcellulose) (HPC)

Measured: T/C

C/C(=N/N(C)C)c1cccs1
inactive: dose: 4.0 mg/kg/injection, schedule: Q04DX003 (sc), vehicle: olive oil, sesame oil, peanut oil 89 % of control | dose: 6.0 mg/kg/injection, schedule: Q04DX003 (sc), vehicle: olive oil, sesame oil, peanut oil 103 % of control | dose: 9.0 mg/kg/injection, schedule: Q04DX003 (sc), vehicle: olive oil, sesame oil, peanut oil 99 % of control | dose: 12.5 mg/kg/injection, schedule: Q04DX003 (sc), vehicle: olive oil, sesame oil, peanut oil 102 % of control | dose: 14.0 mg/kg/injection, schedule: Q04DX003 (sc), vehicle: olive oil, sesame oil, peanut oil 97 % of control | dose: 22.0 mg/kg/injection, schedule: Q04DX003 (sc), vehicle: olive oil, sesame oil, peanut oil 120 % of control | dose: 33.0 mg/kg/injection, schedule: Q04DX003 (sc), vehicle: olive oil, sesame oil, peanut oil 124 % of control | dose: 50.0 mg/kg/injection, schedule: Q04DX003 (sc), vehicle: olive oil, sesame oil, peanut oil 98 % of control

Cc1ccc(C(=O)c2ccc([N+](=O)[O-])cc2)cc1
inactive: dose: 50.0 mg/kg/injection, schedule: Q01DX001 (ip), vehicle: saline 103 % of control | [1] 101 % of control | [2] 92 % of control | [3] 114 % of control

CC1([N+](=O)[O-])COP(=O)(Nc2ccccc2F)OC1 (stereo not given)
inactive: dose: 100.0 mg/kg/injection, schedule: Q01DX001 (ip), vehicle: carboxymethylcellulose (CMC) 101 % of control | dose: 200.0 mg/kg/injection, schedule: Q01DX001 (ip), vehicle: carboxymethylcellulose (CMC) 95 % of control | dose: 400.0 mg/kg/injection, schedule: Q01DX001 (ip), vehicle: carboxymethylcellulose (CMC) 104 % of control

O=c1nc2n(CCO)c3ccccc3nc-2c(=O)[nH]1
inactive: dose: 25.0 mg/kg/injection, schedule: Q04DX002 (ip), vehicle: saline 100 % of control | dose: 50.0 mg/kg/injection, schedule: Q04DX002 (ip), vehicle: saline 106 % of control | dose: 100.0 mg/kg/injection, schedule: Q04DX002 (ip), vehicle: saline 95 % of control

OC1CC2C3CCC(C3)C2C1O (stereo not given)
inactive: [4] 106 % of control | [5] 90 % of control

CN(C)c1ccc(/C=C/C=N/Nc2nnc(N/N=C/C=C/c3ccc(N(C)C)cc3)c3ccccc23)cc1
inactive: dose: 50.0 mg/kg/injection, schedule: Q01DX001 (ip), vehicle: other 109 % of control | [6] 100 % of control | [7] 103 % of control | [8] 100 % of control

CCOC(=O)C1CN(Cc2ccccc2)CCC1=O (stereo not given)
inactive: [9] 103 % of control | [10] 106 % of control | [11] 100 % of control

Cc1cc(C)c(CS)c(C)c1
inactive: dose: 25.0 mg/kg/injection, schedule: Q04DX002 (ip), vehicle: Klucel (hydroxypropylcellulose) (HPC) 98 % of control | dose: 50.0 mg/kg/injection, schedule: Q04DX002 (ip), vehicle: Klucel (hydroxypropylcellulose) (HPC) 95 % of control | [12] 98 % of control | [13] 95 % of control | [14] 100 % of control

CCCN(CCC)CCCC#N
inactive: [4] 95 % of control | [5] 93 % of control

NC(N)=N/N=C(/C=C/c1ccccc1)c1ccc(Cl)cc1
inactive: dose: 15.0 mg/kg/injection, schedule: Q01DX Z (ip), vehicle: carboxymethylcellulose (CMC) 92 % of control | dose: 30.0 mg/kg/injection, schedule: Q01DX Z (ip), vehicle: carboxymethylcellulose (CMC) 92 % of control | dose: 60.0 mg/kg/injection, schedule: Q01DX Z (ip), vehicle: carboxymethylcellulose (CMC) 95 % of control and 91 % of control | dose: 120.0 mg/kg/injection, schedule: Q01DX Z (ip), vehicle: carboxymethylcellulose (CMC) 101 % of control and 88 % of control | dose: 120.0 mg/kg/injection, schedule: Q01DX Z (oral), vehicle: carboxymethylcellulose (CMC) 96 % of control | dose: 240.0 mg/kg/injection, schedule: Q01DX Z (ip), vehicle: carboxymethylcellulose (CMC) 90 % of control | dose: 240.0 mg/kg/injection, schedule: Q01DX Z (oral), vehicle: carboxymethylcellulose (CMC) 100 % of control | dose: 480.0 mg/kg/injection, schedule: Q01DX Z (oral), vehicle: carboxymethylcellulose (CMC) 105 % of control | dose: 960.0 mg/kg/injection, schedule: Q01DX Z (oral), vehicle: carboxymethylcellulose (CMC) 102 % of control

COc1ccc(CCNC2C3CC4CC(C3)CC2C4)cc1OC (stereo not given)
inactive: [9] 94 % of control

COC1OC(COC(=S)SCC2OC(OC)C(OC)C(OC)C2OC)C(OC)C(OC)C1OC (stereo not given)
inactive: [12] 100 % of control | [13] 93 % of control and 92 % of control | [14] 96 % of control and 89 % of control

Nc1nc(N)nc(-c2ccc(Cl)cc2)n1
inactive: dose: 25.0 mg/kg/injection, schedule: Q01DX001 (ip), vehicle: saline with Tween-80 96 % of control | dose: 50.0 mg/kg/injection, schedule: Q01DX001 (ip), vehicle: saline with Tween-80 98 % of control | dose: 100.0 mg/kg/injection, schedule: Q01DX001 (ip), vehicle: saline with Tween-80 101 % of control

CNC(=O)c1ccccc1-c1ccccc1C(=O)NC
inactive: [6] 102 % of control | [7] 102 % of control | [8] 98 % of control

Nc1c(Br)cc(O)c2c1C(=O)c1ccccc1C2=O
inactive: dose: 100.0 mg/kg/injection, schedule: Q01DX009 (ip), vehicle: Klucel (hydroxypropylcellulose) (HPC) 88 % of control | [15] 100 % of control | dose: 200.0 mg/kg/injection, schedule: Q01DX009 (ip), vehicle: Klucel (hydroxypropylcellulose) (HPC) 90 % of control | [16] 100 % of control | dose: 400.0 mg/kg/injection, schedule: Q01DX009 (ip), vehicle: Klucel (hydroxypropylcellulose) (HPC) 90 % of control | [17] 96 % of control

Cc1cccc2c1SCCC2=O
inactive: [1] 92 % of control | [2] 92 % of control | [3] 89 % of control

O=C(O)C(SSC(C(=O)O)(c1ccccc1)c1ccccc1)(c1ccccc1)c1ccccc1
inactive: [15] 106 % of control | [16] 102 % of control | [17] 88 % of control

COc1cc2ccc(C(N)=O)cc2cc1OC
inactive: [6] 98 % of control | dose: 100.0 mg/kg/injection, schedule: Q01DX009 (ip), vehicle: saline with Tween-80 92 % of control | dose: 100.0 mg/kg/injection, schedule: Q04DX003 (ip), vehicle: other 96 % of control | [7] 102 % of control | dose: 200.0 mg/kg/injection, schedule: Q01DX009 (ip), vehicle: saline with Tween-80 95 % of control | dose: 200.0 mg/kg/injection, schedule: Q04DX003 (ip), vehicle: other 103 % of control | [8] 100 % of control | dose: 400.0 mg/kg/injection, schedule: Q01DX009 (ip), vehicle: saline with Tween-80 98 % of control | dose: 400.0 mg/kg/injection, schedule: Q04DX003 (ip), vehicle: other 103 % of control

ClCCC1CNCCN1 (stereo not given)
inactive: dose: 100.0 mg/kg/injection, schedule: Q01DX009 (ip), vehicle: saline 87 % of control | [9] 96 % of control | dose: 200.0 mg/kg/injection, schedule: Q01DX009 (ip), vehicle: saline 89 % of control | [10] 96 % of control | dose: 400.0 mg/kg/injection, schedule: Q01DX009 (ip), vehicle: saline 89 % of control | [11] 103 % of control
